Results taken from patent US20180132458A1, “TRANSGENIC ANIMAL MODELS FOR CYSTIC FIBROSIS” (THE REGENTS OF THE UNIVERSITY OF MICHIGAN, priority 2016, published 2018).

Tested on: forskolin/IBMX-stimulated CFTR Cl current in ileum tissue
Experiment: Short-circuit current of freshly excised ileum tissue measured by Ussing chamber
Assay type: cell-based, rabbit
Conditions: CFTR+/+ rabbits
Experimental: (Panel A) Immunocytochemistry of lungs and small intestines from CFTR+/+ and CFTR−/− rabbits. Red: CFTR; blue: nuclei. (Panel B) Short circuit current measurements of small intestines from CFTR+/+ and CFTR−/− rabbits after treated 1 μM indomethcin.
CFTR expression in the airways and in the small intestines of wild-type and CFTR−/− rabbits was evaluated by immunoflorescence. […] Next, CFTR Cl secretion in these animals were examined. Ileum tissues from CFTR+/+ and CFTR−/− rabbits were used for CFTR functional assay. Short-circuit currents from these tissues with muscle layer on serosal side removed were measured by Ussing chamber. […] This situation was also observed in ferrets and pigs.

| Structure (SMILES) | forskolin-stimulated current blocked (GlyH101 at 10 μM) | forskolin-stimulated current blocked |
| --- | --- | --- |
| O=C(CNc1ccc2ccccc2c1)N/N=C/c1cc(Br)c(O)c(Br)c1O [GlyH101] | Only a small fraction | – |
| CCCCNc1cc(C(=O)O)cc(S(N)(=O)=O)c1Oc1ccccc1 [bumetanide] | – | more than 50% |
